The values below come from patent publication US6407099B1, “Arylpiperidinopropanol and arylpiperazinopropanol derivatives and pharmaceuticals containing the same” (Suntory Limited, priority 1997, dated 2002).

Data set [1] deals with Sodium channel. In words: Inhibitory effect of veratrizine-induced sodium channel activity (synaptozome membrane potential, Rhodamine 6G). The settings on record: compound 0.1 μM; rat brain synaptozomes, veratrizine-induced depolarization. Format: biochemical, Wistar rats. From the text:
Inhibitory Effect of Veratrizine-induced Sodium Channel Activity

Data set [2] relates to DBA/2N type mice. The experiment in a line: Audiogenic seizure suppressing effect. It counts as in vivo. The settings on record: compound 10 mg/kg, i.p., audio stimulus after 20 minutes, seizure score; for inhibition in vivo at 10 mg/kg: Mus musculus, ip, 20 min, read-out: Antiseizure effect (suppression rate %); for Antiseizure effect (suppression rate %): 10 mg/kg. Here is the method: Audiogenic Seizure Suppressing Effect
The audiogenic seizure suppressing effect of the compounds was evaluated by the method of Sarro et al. [G. B. De Sarro et al., Br. J. Pharmacol., 93, 247 (1988)]. That is, the compound dissolved in 10% 2-hydroxypropyl-β-cyclodextrin was administered intraperitoneally to DBA/2N type mice (male, 3 weeks old). After 20 minutes, a supersonic washer was used to apply audio stimulus of at least 90 dB for 1 minute. The wild running (WR), clonic seizures (clonus), tonic seizures (tonus), and the respiratory arrest (RA) were observed. The seizure suppressing effect was evaluated from the rate of suppression of the average value of the seizure score found as 0=no response, 1=WR, 2=clonus, 3=tonus, and 4=RA.

Data set [3] deals with T1, Dopamine D2 receptor (Rattus norvegicus, UniProt P61169).
T1 construct: membrane fraction prepared from the striatum of Wistar male rats; from tissue; host or cells: rat striatum membrane fraction
In words: Dopamine D2 receptor blocking action ([^3H] raclopride, striatum membrane fraction). It counts as binding, Wistar male rats. The settings on record: 1.0 nM [^3H] raclopride, 25° C., 1 hour. The procedure:
Dopamine D2 Receptor Blocking Action
57 μl of the membrane fraction prepared from the striatum of Wistar male rats (6 weeks old) was incubated together with the compound and 1.0 nM [^3H] raclopride in a buffer at 25° C. for 1 hour. A GF/C glass filter (0.1% polyethylene imine treatment) was used for B/F separation. A beta plate was used for measurement of the radioactivity to evaluate the effect of the compound.

The nature of data set [4]: Acute toxicity test. The settings on record: male, mouse, in vivo, iv, ddY mice, death rate up to 24 hours after administration. Here is the method:
A pharmaceutical preparation was administered intravenously to ddY mice (male, 6 weeks old). The 50% lethal dosage LD50 of the acute toxicity was calculated by an ordinary method from the death rate up to 24 hours after administration.

The test system of data set [5] is T-type Ca^2+ channel. The experiment in a line: T-type calcium channel inhibitory effect (whole-cell patch clamp, hippocampal CA1 pyramidal cells). Format: cell-based, Wistar rats. Particulars: rat hippocampal CA1 pyramidal cells; peak current after 1 minute of application. Here is the method: T-Type Calcium Channel Inhibitory Effect
The hippocampal CA1 pyramidal cells were isolated from Wistar rats (female, 1 week old) in according to the method reported by Takahashi et al. [K. Takahashi et al.; J. Pharmacol. Exp. Ther., 256, 169 (1991)] and the T-type calcium current was measured under conditions of a fixed membrane potential using the whole-cell configuration of the patch clamp technique. The effects of the compounds were evaluated from the rate of suppression of the peak current after 1 minute of application using the concentration clamp method.
Background: Patch clamp records ionic current or voltage across a cell membrane.

T1 sequence (P61169 whole entry): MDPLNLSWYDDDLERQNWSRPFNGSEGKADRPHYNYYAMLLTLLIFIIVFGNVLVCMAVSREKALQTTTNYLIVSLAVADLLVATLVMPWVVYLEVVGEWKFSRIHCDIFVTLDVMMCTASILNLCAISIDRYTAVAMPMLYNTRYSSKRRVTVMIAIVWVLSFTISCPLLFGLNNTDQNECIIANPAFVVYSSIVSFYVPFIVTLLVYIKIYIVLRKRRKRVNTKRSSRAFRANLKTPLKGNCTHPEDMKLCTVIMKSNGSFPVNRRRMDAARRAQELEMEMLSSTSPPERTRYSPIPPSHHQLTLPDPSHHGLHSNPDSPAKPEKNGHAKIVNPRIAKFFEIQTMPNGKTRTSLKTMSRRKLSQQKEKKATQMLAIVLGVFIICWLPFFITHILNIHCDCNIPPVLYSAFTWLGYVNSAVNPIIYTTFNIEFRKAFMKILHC

On to `Nc1ccc(OC[C@@H](O)CN2CCC(c3ccc(Oc4ccccc4)cc3)CC2)cc1` [Compound 25, (2S)-1-(4-aminophenoxy)-3-[4-(4-phenoxyphenyl)piperidin-1-yl]-2-propanol], for which the “Anti-veratrizine effect (inhibiting rate %)” value in data set [1] was 21%. The inhibition in vivo at 10 mg/kg in data set [2] is 58%.
In the case of `Cc1cc(OC[C@@H](O)CN2CCC(c3ccc(Oc4ccccc4)cc3)CC2)c(C)c(C)c1N` [Compound 26, (2S)-1-[(4-amino-2,3,5-trimethyl)phenoxy]-3-[4-(4-phenoxyphenyl)piperidin-1-yl]-2-propanol], the IC50 (usually the point on the concentration scale where inhibition reaches its midpoint) in data set [3] turned out to be 5.6 µM; in data set [5], 3.4 µM. In data set [4], the LD50 (usually the dose at which mortality reaches 50%) at 24 h stood at 41 mg/kg. Besides, the inhibition in vivo at 10 mg/kg in data set [2] was found to be 74%.
Regarding `Cc1cc(OC[C@@H](O)CN2CCN(c3ccc(Cc4ccc(F)cc4)cc3)CC2)c(C)c(C)c1N` [Compound 28, (2S)-1-[(4-amino-2,3,5-trimethyl)phenoxy]-3-[4-(4-(4-fluorophenyl)methylphenyl)piperazin-1-yl]-2-propanol], the IC50 came to 12 µM in data set [3] and 3 µM in data set [5]. In data set [4], this molecule returned an LD50 at 24 h of 47.3 mg/kg. In addition, the inhibition in vivo at 10 mg/kg in data set [2] was determined as 76%.
In the case of `Cc1cc(OC[C@@H](O)CN2CCC(O)(c3ccc(-c4ccccc4)c(F)c3)CC2)c(C)c(C)c1N` [Compound 30], in data set [2], the inhibition in vivo at 10 mg/kg amounted to 44%.
The same measure, in the same setting: in the case of `Cc1cc(OC[C@@H](O)CN2CCC(c3ccc(OC4CCCC4)cc3)CC2)c(C)c(C)c1N` [Compound 31, (2S)-1-[(4-amino-2,3,5-trimethyl)phenoxy]-3-[4-(4-cyclopentyloxyphenyl)piperidin-1-yl]-2-propanol] it was 74%; in that of `Cc1cc(OC[C@@H](O)CN2CCC(c3ccc(Oc4ccccc4)cc3)CC2)c(C)cc1N` [Compound 32], 70%.
Still for that read-out and setting: in the case of `Cc1cc(OC[C@@H](O)CN2CCC(c3ccc(Cc4ccc(F)cc4)cc3)CC2)c(C)cc1N` [Compound 33, (2S)-1-[(4-amino-2,5-dimethyl)phenoxy]-3-[4-(4-(4-fluorophenyl)methylphenyl)piperidin-1-yl]-2-propanol] it was 78%; in that of `Cc1cc(OC[C@@H](O)CN2CCN(c3ccc(Cc4ccc(F)cc4)cc3)CC2)c(C)cc1N` [Compound 34], 74%; in that of `Cc1c(N)ccc(OC[C@@H](O)CN2CCC(c3ccc(Oc4ccccc4)cc3)CC2)c1C` [Compound 35, (2S)-1-[(4-amino-2,3-dimethyl)phenoxy]-3-[4-(4-phenoxyphenyl)piperidin-1-yl]-2-propanol], 74%.
Still for that read-out and setting: in the case of `Cc1c(N)ccc(OC[C@@H](O)CN2CCC(c3ccc(Cc4ccc(F)cc4)cc3)CC2)c1C` [Compound 36, (2S)-1-[(4-amino-2,3-dimethyl)phenoxy]-3-[4-(4-(4-fluorophenyl)methylphenyl)piperidin-1-yl]-2-propanol] it was 68%; in that of `Cc1cc(N)c(C)c(C)c1OC[C@@H](O)CN1CCC(c2ccc(Oc3ccccc3)cc2)CC1` [Compound 38, (2S)-1-[(4-amino-2,3,6-trimethyl)phenoxy]-3-[4-(4-phenoxyphenyl)piperidin-1-yl]-2-propanol], 92%.
Take `Cc1cc(N)c(C)c(C)c1OC[C@@H](O)CN1CCN(c2ccc(Cc3ccc(F)cc3)cc2)CC1` [Compound 40, (2S)-1-[(4-amino-2,3,6-trimethyl)phenoxy]-3-[4-(4-(4-fluorophenyl)methylphenyl)piperazin-1-yl]-2-propanol]: the IC50 in data set [3] stood at 12 µM. The LD50 at 24 h in data set [4] stood at 49.1 mg/kg. The inhibition in vivo at 10 mg/kg in data set [2] was 80%.
In the case of `COc1ccc(N)cc1OC[C@@H](O)CN1CCC(c2ccc(Oc3ccc(F)cc3)cc2)CC1` [Compound 42, (2S)-1-[(5-amino-2-methoxy)phenoxy]-3-[4-(4-(4-fluorophenoxy)phenyl)piperidin-1-yl]-2-propanol], in data set [1], the “Anti-veratrizine effect (inhibiting rate %)” value is reported as 10.3%. Besides, in data set [2], the inhibition in vivo at 10 mg/kg was determined as 50%.
In the same order, the values of `COc1ccc(N)cc1OC[C@@H](O)CN1CCC(c2ccc(Cc3ccc(F)cc3)cc2)CC1` [Compound 43, (2S)-1-[(5-amino-2-methoxy)phenoxy]-3-[4-(4-(4-fluorophenyl)methylphenyl)piperidin-1-yl]-2-propanol] are 21% and 30%.
In the case of `COc1ccc(N)cc1OC[C@@H](O)CN1CCN(c2ccc(Cc3ccc(F)cc3)cc2)CC1` [Compound 44, (2S)-1-[(5-amino-2-methoxy)phenoxy]-3-[4-(4-(4-fluorophenyl)methylphenyl)piperazin-1-yl]-2-propanol], the inhibition in vivo at 10 mg/kg in data set [2] was 80%.
Still for that read-out and setting: in the case of `COc1ccc(N)cc1OC[C@@H](O)CN1CCC(c2ccc(OC3CCCC3)cc2)CC1` [Compound 45] it was 44%.
Same read-out and setting: in the case of `Cc1cc(C)c(OC[C@@H](O)CN2CCC(c3ccc(Oc4ccccc4)cc3)CC2)c(N)c1` [Compound 46, (2S)-1-[(2-amino-4,6-dimethyl)phenoxy]-3-[4-(4-phenoxyphenyl)piperidin-1-yl]-2-propanol] it was 88%; in that of `Cc1cc(C)c(OC[C@@H](O)CN2CCC(c3ccc(Cc4ccc(F)cc4)cc3)CC2)c(N)c1` [Compound 47, (2S)-1-[(2-amino-4,6-dimethyl)phenoxy]-3-[4-(4-(4-fluorophenyl)methylphenyl)piperidin-1-yl]-2-propanol], 56%.
The same measure, in the same setting: in the case of `Cc1cc(C)c(OC[C@@H](O)CN2CCN(c3ccc(Cc4ccc(F)cc4)cc3)CC2)c(N)c1` [Compound 48, (2S)-1-[(2-amino-4,6-dimethyl)phenoxy]-3-[4-(4-(4-fluorophenyl)methylphenyl)piperazin-1-yl]-2-propanol] it was 70%.
With `COc1cc(Cl)c(N)cc1OC[C@@H](O)CN1CCC(c2ccc(Oc3ccccc3)cc2)CC1` [Compound 49, (2S)-1-[(5-amino-4-chloro-2-methoxy)phenoxy]-3-[4-(4-phenoxyphenyl)piperidin-1-yl]-2-propanol], the “Anti-veratrizine effect (inhibiting rate %)” value in data set [1] is given as 15.1%. Also, the inhibition in vivo at 10 mg/kg in data set [2] is 42%.
For the molecule `Nc1cc(Cl)c(OC[C@@H](O)CN2CCC(c3ccc(Oc4ccccc4)cc3)CC2)c(Cl)c1` [Compound 51, (2S)-1-[(4-amino-2,6-dichloro)phenoxy]-3-[4-(4-phenoxyphenyl)piperidin-1-yl]-2-propanol], in data set [2], the inhibition in vivo at 10 mg/kg came to 74%.
For the molecule `COc1ccc(NCC(O)CN2CCC(c3ccc(Oc4ccccc4)cc3)CC2)c(C)c1` (centres unmarked) [Compound 53, 1-[4-(4-phenoxyphenyl)piperidin-1-yl]-3-[(4-methoxy-2-methyl)phenylamino]-2-propanol], the IC50 in data set [3] amounted to 11 µM; in data set [5], 2.2 µM. Also, the “Antiseizure effect (suppression rate %)” value in data set [2] is given as 46%.
Take `COc1ccc(NCC(O)CN2CCC(c3ccc(Cc4ccc(F)cc4)cc3)CC2)c(C)c1` (centres unmarked) [Compound 54]: the inhibition in vivo at 10 mg/kg in data set [2] was 58%.
Same read-out and setting: in the case of `COc1ccc(NCC(O)CN2CCN(c3ccc(Cc4ccc(F)cc4)cc3)CC2)c(C)c1` (centres unmarked) [Compound 55] it was 70%.
Regarding `COc1ccc(NC[C@@H](O)CN2CCC(c3ccc(Oc4ccccc4)cc3)CC2)c(C)c1` [Compound 56, (2R)-1-[4-(4-phenoxyphenyl)piperidin-1-yl]-3-[(4-methoxy-2-methyl)phenylamino]-2-propanol], the “Antiseizure effect (suppression rate %)” value in data set [2] turned out to be 64%.
Take `COc1ccc(NC[C@H](O)CN2CCC(c3ccc(Oc4ccccc4)cc3)CC2)c(C)c1` [Compound 57]: in data set [2], the “Antiseizure effect (suppression rate %)” value came to 68%.
`Cc1c(C)c(NCC(O)CN2CCC(c3ccc(Oc4ccccc4)cc3)CC2)c(C)c(C)c1N` (centres unmarked) [Compound 58, 3-[(4-amino-2,3,5,6-tetramethyl)phenylamino]-1-[4-(4-phenoxyphenyl)piperidin-1-yl]-2-propanol]: in data set [2], the inhibition in vivo at 10 mg/kg stood at 68%.
